In patent US7996156B2, “Methods for predicting properties of molecules” (priority 2002, dated 2011):

These molecules were tested against T1, estrogen receptor (Rattus norvegicus, UniProt P06211) (assay: Competitive ER binding assay with [3H]E2 in rat uterine cytosol (NCTR)). Conditions: not given.
T1 construct: in rat uterine cytosol, which was obtained from ovariectomized uteri of Sprague-Dawley rats; from tissue; host or cells: uterine cytosol of ovariectomized Sprague-Dawley rats
T1 sequence (P06211 1-600): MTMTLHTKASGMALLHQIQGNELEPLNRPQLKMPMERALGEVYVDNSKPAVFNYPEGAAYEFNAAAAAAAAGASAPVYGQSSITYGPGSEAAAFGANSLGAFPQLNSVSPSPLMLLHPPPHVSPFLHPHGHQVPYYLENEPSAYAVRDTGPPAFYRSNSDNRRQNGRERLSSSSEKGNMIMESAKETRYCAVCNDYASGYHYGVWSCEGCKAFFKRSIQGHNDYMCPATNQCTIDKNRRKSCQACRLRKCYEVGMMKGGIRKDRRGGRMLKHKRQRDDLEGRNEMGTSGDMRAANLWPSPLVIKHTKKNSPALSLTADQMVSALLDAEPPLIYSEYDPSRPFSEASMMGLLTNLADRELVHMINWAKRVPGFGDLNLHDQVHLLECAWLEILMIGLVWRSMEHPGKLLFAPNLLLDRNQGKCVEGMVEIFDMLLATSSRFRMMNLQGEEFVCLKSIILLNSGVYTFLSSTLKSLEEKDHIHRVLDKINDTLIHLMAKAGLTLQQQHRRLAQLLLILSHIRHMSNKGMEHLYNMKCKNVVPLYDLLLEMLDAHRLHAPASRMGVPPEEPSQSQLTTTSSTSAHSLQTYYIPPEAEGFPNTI
From the text: The log relative binding activity (RBA) data for these 130 structurally diverse compounds was used to train the CoSCoSA models. The data was produced at NCTR using a competitive ER binding assay with radiolabeled estradiol ([^3H]E2) in rat uterine cytosol, which was obtained from ovariectomized uteri of Sprague-Dawley rats. […] For each of the 130 compounds, the ^13C 2D ^13C—^13C COSY NMR experiment was simulated using the ACD Labs CNMR version 5.0 2D predictor software. The COSY NMR spectra could be saved as two tables per compound.

Structure (SMILES)	Exp. Log(RBA)
C[Si](C)(O[Si](C)(C)c1ccccc1)c1ccccc1 [1,3-diphenyltetramethyldisiloxane]	−3.16
C[C@]12CC[C@@H]3c4ccc(O)c(O)c4CC[C@H]3[C@@H]1CC[C@@H]2O [4-hydroxyestradiol]	2.24
O=C(/C=C/c1ccccc1)c1ccccc1 [chalcone]	−2.82
CCCCCCCCCCCCc1ccc(O)cc1 [4-dodecylphenol]	−1.73
O=C(/C=C/c1ccc(O)cc1)c1ccc(O)cc1O [2′,4,4′-trihydroxychalcone]	−1.26
Oc1ccc(OCc2ccccc2)cc1 [4-benzyloxyphenol]	−3.44
C[C@]12CC[C@@H]3c4ccc(O)cc4C[C@@H](CCCCCCCCC[S+]([O-])CCCC(F)(F)C(F)(F)F)[C@H]3[C@@H]1CC[C@@H]2O (stereo partly drawn) [ICI182780]	1.57
O=S(=O)(c1ccc(O)cc1)c1ccc(O)cc1 [4,4′-sulfonyldiphenol]	−3.07
CC[C@H](c1ccc(O)cc1)[C@@H](CC)c1ccc(O)cc1 [meso-hexestrol]	2.48
Oc1ccc([C@H]2COc3cc(O)ccc3C2)cc1 [equol]	−0.82
C#C[C@]1(O)CC[C@H]2[C@@H]3CCc4cc(OC)ccc4[C@H]3CC[C@@]21C [mestranol]	0.35
C[C@H]1CCCC(=O)CCCCCc2cc(O)cc(O)c2C(=O)O1 [zearalanone]	0.32
COc1cc(C(=C(Cl)Cl)c2ccc(O)cc2)ccc1O [dihydroxymethoxychlorolefin]	0.42
C[C@]12CC[C@@H](O)C[C@@H]1CC[C@@H]1[C@@H]2CC[C@]2(C)[C@@H](O)CC[C@@H]12 [3α-androstanediol]	−2.67
CCCOC(=O)c1ccc(O)cc1 [propyl-4-hydroxybenzoate]	−3.22
O=C(CCc1ccc(O)cc1)c1c(O)cc(O)cc1O [phloretin]	−1.16

Structure (SMILES)	Exp. Log(RBA)
CC(CCC(=O)O)(c1ccc(O)cc1)c1ccc(O)cc1 [diphenolic acid]	−3.13
Clc1ccc(-c2ccccc2Cl)cc1 [2,4′-dichlorobiphenyl]	−3.61
O=C1C=CC(=C(c2ccc(O)cc2)c2ccc(O)cc2)C=C1 [aurin]	−1.5
CC(C)(C)c1ccc(O)cc1 [4-tert-butylphenol]	−3.61
Oc1ccc(-c2cc(Cl)ccc2Cl)cc1 [2,5-dichloro-4′-biphenylol]	−1.44
O=c1cc(-c2ccccc2)oc2cc(O)c(O)c(O)c12 [baicalein]	−3.35
CCC(C)(c1ccc(O)cc1)c1ccc(O)cc1 [bisphenol B]	−1.07
C[C@]12CC[C@@H]3c4cc(O)c(O)cc4CC[C@H]3[C@@H]1CC[C@@H]2O [2-hydroxyestradiol]	1.47
C[C@]12CC[C@H](O)C[C@@H]1CC[C@@H]1[C@@H]2CC[C@]2(C)[C@@H](O)CC[C@@H]12 [3β-androstanediol]	−0.92
COc1cc(O)c2c(=O)c(-c3ccc(O)cc3)coc2c1 [prunetin]	−2.74
O=C(C(=O)c1ccc(O)cc1O)c1ccc(O)cc1O [2,2′,4,4′-tetrahydroxybenzil]	−0.68
CC/C(=C(/c1ccc(OCCN(C)C)cc1)c1cccc(O)c1)c1ccccc1 [droloxifene]	1.18
C#C[C@]1(O)CC[C@H]2[C@@H]3CCc4cc(O)ccc4[C@H]3[C@@H](OC)C[C@@]21C [moxestrol]	1.14
Oc1ccc(Cl)cc1Cc1cc(Cl)ccc1O [2,2′-methylenebis(4-chlorophenol)]	−2.45
O=c1c(O)c(-c2cc(O)c(O)c(O)c2)oc2cc(O)cc(O)c12 [myricetin]	−2.75
Oc1cccc(-c2ccccc2)c1 [3-phenylphenol]	−3.44

Same assay, conditions: relative binding affinity vs 17-β-estradiol (RBA 100), rat uterine cytosol, 130 compound training set

Structure (SMILES)	Exp. Log(RBA)
CCCCCCCOC(=O)c1ccc(O)cc1 [heptyl-4-hydroxybenzoate]	−2.09
CC[C@H]1c2ccc3cc(OC)ccc3c2CC[C@@]1(C)C(=O)O [doisynoestrol]	−2.74
CCCCN(C)C(=O)CCCCCCCCCC[C@@H]1Cc2cc(O)ccc2[C@H]2CC[C@]3(C)[C@@H](O)CC[C@H]3[C@H]12 [ICI164384]	1.16
O=C1CC(c2ccccc2)Oc2ccc(O)cc21 (stereo not drawn) [6-hydroxyflavanone]	−3.05
CCCCCCCOc1ccc(O)cc1 [4-heptyloxyphenol]	−2.88
CCOC(=O)c1ccc(O)cc1 [ethyl-4-hydrobenzoate]	−3.22
COc1ccc2c(c1)CC[C@@H]1[C@@H]2CC[C@]2(C)[C@@H](O)[C@H](O)C[C@@H]12 [3-methylestriol]	−1.65
O=c1c(-c2ccc(O)c(O)c2)coc2cc(O)ccc12 [3′,4′,7-trihydroxyisoflavone]	−2.35
COc1ccc(C(=C(Cl)Cl)c2ccc(O)cc2)cc1 [monohydroxymethoxychlorolefin]	−0.63
CC(C)(c1ccc(O)cc1)c1ccc(O)cc1 [bisphenol A]	−2.11
Oc1c(Cl)cc(-c2cc(Cl)c(O)c(Cl)c2)cc1Cl [3,3′,5,5′-tetraCl-4,4′-biphenyldiol]	−3.25
O=C(/C=C/c1ccccc1)c1ccc(O)cc1 [4′-OH-chalcone]	−2.43
C[C@]12CC[C@@H]3c4ccccc4CC[C@H]3[C@@H]1CCC2=O [3-deoxyestrone]	−2.2
Oc1ccc(CCc2ccc(O)cc2)cc1 [4,4′-(1,2-ethanediyl)bisphenol]	−1.44
C[C@@]12CCC[C@H]1[C@@H]1CCc3cc(O)ccc3[C@H]1CC2 [17-deoxyestradiol]	1.14
O=C1CC(c2ccc(O)cc2)Oc2ccccc21 (stereo not drawn) [4′-hydroxyflavanone]	−2.65
C[C@]12CC[C@@H]3c4ccc(O)cc4[C@@H](O)C[C@H]3[C@@H]1CC[C@@H]2O [1,3,5-Estratrien-3,6α-17β-triol]	−0.15
COc1ccc(C(c2ccc(O)cc2)C(Cl)(Cl)Cl)cc1 (stereo not drawn) [monohydroxymethoxychlor]	−0.89
O=C(c1ccc(O)cc1)c1ccc(O)cc1 [4,4′-dihydroxybenzophenone]	−2.46
CCC(c1ccc(O)cc1)C(CC)c1ccc(OC)cc1 (stereo not drawn) [monomethyl ether hexestrol]	0.97
COc1ccc(-c2coc3cc(O)cc(O)c3c2=O)cc1 [biochanin A]	−2.37
C[C@H]1CCC[C@@H](O)CCC/C=C/c2cc(O)cc(O)c2C(=O)O1 [β-zearalenol]	−0.69

Structure (SMILES)	Exp. Log(RBA)
COC(=O)c1ccc(O)cc1 [methyl-4-hydrobenzoate]	−3.44
CC/C(=C(/CC)c1ccc(OC)cc1)c1ccc(O)cc1 [diethylstilbestrol monomethyl ether]	1.31
O=C(OCc1ccccc1)c1ccc(O)cc1 [benzyl-4-hydroxybenzoate]	−2.54
C(=C(c1ccccc1)c1ccccc1)c1ccccc1 [triphenylethylene]	−2.78
O=C1CC(c2cccc(O)c2)Oc2ccccc21 (stereo not drawn) [3′-OH-flavanone]	−2.78
O=c1c(O)c(-c2ccc(O)cc2O)oc2cc(O)cc(O)c12 [morin]	−3.35
CCC(c1ccc(O)cc1)C(CC)c1c(C)cc(O)cc1C (stereo not drawn) [2,6-dimethylhexestrol]	1.11
Oc1ccc(-c2cc(Cl)c(Cl)c(Cl)c2Cl)cc1 [2,3,4,5-tetraCl-4′-biphenylol]	−0.64
C/C(=C(/C)c1ccc(O)cc1)c1ccc(O)cc1 [dimethylstibestrol]	1.16
O=c1c(O)c(-c2ccc(O)cc2)oc2ccc(O)cc12 [3,6,4′-trihydroxyflavone]	−0.35
O=c1cc(-c2ccccc2)oc2ccc(O)cc12 [6-hydroxyflavone]	−3.41
Oc1ccc(CCc2ccccc2)cc1 [4-phenethylphenol]	−2.69
O=C(/C=C/c1ccc(O)cc1)c1ccccc1 [4-OH-chalcone]	−2.43
Clc1ccc(C(c2ccccc2Cl)C(Cl)(Cl)Cl)cc1 (stereo not drawn) [o,p′,-DDT]	−2.85
O=c1c(O)c(-c2ccc(O)c(O)c2)oc2cc(O)ccc12 [fisetin]	−2.35
O=C(c1ccccc1)c1ccc(O)cc1O [2,4-dihyroxybenzophenone]	−2.61
CCC(c1ccc(O)c(O)c1)C(CC)c1ccc(O)c(O)c1 (stereo not drawn) [3,3′-dihydroxyhestrol]	1.19
C[C@H]1CCC[C@H](O)CCC/C=C/c2cc(O)cc(O)c2C(=O)O1 [α-zearalenol]	1.63
O=c1cc(-c2ccc(O)cc2)oc2ccc(O)cc12 [4,6-dihydroxyflavone]	−0.82
Cc1cc(O)ccc1Cl [4-Cl-3-methylphenol]	−3.38
CCc1cccc(O)c1 [3-ethylphenol]	−3.87
